Laboratory results published in US20030211076A1, “Compositions and methods for treatment of proliferative disorders” (priority 2003, published 2003).

Molecular target: T1, lysyl oxidase (LO) (Bos taurus, UniProt P33072)
T1 construct: per mature LO molecule (32 kD); from tissue
T1 sequence (P33072 170-418): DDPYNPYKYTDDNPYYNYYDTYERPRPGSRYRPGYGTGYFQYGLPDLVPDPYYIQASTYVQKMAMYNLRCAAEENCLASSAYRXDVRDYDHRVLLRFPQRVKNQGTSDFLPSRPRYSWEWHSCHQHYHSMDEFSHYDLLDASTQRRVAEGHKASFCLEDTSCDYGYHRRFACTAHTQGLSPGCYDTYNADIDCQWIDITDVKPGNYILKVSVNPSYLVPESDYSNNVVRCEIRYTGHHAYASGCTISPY
Assay: LO-dependent H2O2 release, horseradish peroxidase-coupled fluorescence assay (substrate potential for LO)
Type: biochemical
Conditions: 55° C. and 37° C.
Description: The oxidation of a primary amine substrate by LO yields stoichiometric amounts of the corresponding aldehyde, hydrogen peroxide and ammonia, as shown: RCH2NH2+O2+H2O→RCHO+H2O2+NH3 (Kagan, 1986). To assess the substrate potential of FGF2, LO-dependent H2O2 release was monitored in assays using FGF2 as the sole substrate, using both the optimum temperature for LO activity of 55° C. and the physiological temperature of 37° C. (Trackman et al., 1981).
LO reaction with FGF2 as a substrate was assessed by a horseradish peroxidase-coupled fluorescence assay for H2O2 production. Reaction mixtures contained 0.25 mg of sodium homovanillate(HVA), 40 μg of HRP, and FGF2 at doses as indicated below in 0.05 M sodium borate buffer, pH 8.2, in a final volume of 2 ml. Assays were initiated by the addition of LO to reaction mixtures. H2O2 release was continuously monitored at excitation and emission wavelengths of 315 and 425 nm, respectively, at a constant temperature of 55° C. or 37° C., as specified, in the thermostatted cuvette chamber of an SLM Aminco Bowman Series 2 Luminescence Spectrometer. All activity data were corrected for background rates of H2O2 release determined in complete assay mixtures supplemented with 200 μM BAPN, an irreversible inhibitor of LO. In FIG. 4, solid curves represent the time course of H2O2 release at 55° C. in the reaction of 0.16 μM LO with 0.23 (a), 0.45 (b) and 0.9 (c) μM FGF2, respectively. Dotted curve (d) represents the time course of H2O2 release in the reaction of 0.16 μM LO with 0.9 μM FGF2 at 37° C. The same data were obtained from three separate experiments.
Using the fluorometric assay (Trackman et al., 1981) to monitor LO-dependent H2O2 release in vitro, the substrate potential of other growth factors was also assessed. Major members of the FGF family tested included FGF 1, 4, 5, 6, 7 and EGF (note: All factors are human recombinant forms purchased from R & D Systems, Inc., Minneapolis, Minn.).
A human recombinant disulfide-linked dimer of VEGF165 (MW: 42 kDa)(R & D Systems) as a sole substrate was tested by using the standard in vitro LO catalysis assays as described above for FIG. 4 (Trackman et al., 1981). Curves represent the time course of H2O2 release at 55° C. (a) or 37° C. (b) in the reaction of 0.10 μM LO with 0.45 μM VEGF165. All activity data were corrected for background rates of H2O2 release determined in complete assay mixtures supplemented with the same amounts of LO preincubated with 100 μM BAPN for 15 min at 37° C. The same data were obtained from three separate experiments.
The standard in vitro LO catalysis assays as described above for FIG. 4 (Trackman et al., 1981) using human recombinant PDGF-AB (R & D Systems) as a sole substrate was tested. […] In FIG. 19, curves represent the time course of H2O2 release at 55° C. (a) and 37° C. (b) in the reaction of 0.11 μM LO with 0.46 μM PDGF-AB, respectively. All activity data were corrected for background rates of H2O2 release determined in complete assay mixtures supplemented with the same amounts of LO preincubated with 100 μM BAPN for 15 minutes at 37° C. The same data were obtained from three separate experiments.
To analyze the substrate potential of Tat, the standard in vitro LO catalysis assays as described in FIG. 4 (Trackman et al., 1981) was performed at the optimum temperature of 55° C. and at the physiological temperature of 37° C. A recombinant Tat with 9 lysines in a total of 86 amino acids was used as a sole substrate. FIG. 12A represents a dose and temperature-dependent response. Curves represent the time course of H2O2 release at 55° C. (solid) or 37° C. (dotted) in the reaction of 0.10 μM LO with 0.22 (a and d), 0.43 (b and e) and 0.85 (c and f) μM Tat, respectively. All activity data were corrected for background rates of H2O2 release determined in complete assay mixtures supplemented with the same amounts of LO preincubated with 100 μM BAPN for 15 min at 37° C. […]

N#CCCN [BAPN, β-Aminopropionitrile, reference compound]
effect on H2O2 release when added after the reaction of LO with Tat was initiated (100 μM BAPN added at 200 seconds): failed to block H2O2 release | inhibition of the reaction of LO with Tat (LO preincubated with 100 μM BAPN for 5 minutes): totally inhibited
